For 1 compound, Kd results are on record in patent US10526322B2, “Inhibitors of kidney-type glutaminase, GLS-1” (CORNELL UNIVERSITY, priority 2014, dated 2020).

The target in the assay is T1, 488-GAC (mouse kidney-type glutaminase isoform 2, GAC) (Mus musculus, UniProt D3Z7P3).
T1 construct: (residues 72-603) was cloned into a pET23a vector; His-tag with thrombin cleavage site (N, cleaved yes); made in house
T1 sequence (D3Z7P3 72-603 isoform D3Z7P3-2): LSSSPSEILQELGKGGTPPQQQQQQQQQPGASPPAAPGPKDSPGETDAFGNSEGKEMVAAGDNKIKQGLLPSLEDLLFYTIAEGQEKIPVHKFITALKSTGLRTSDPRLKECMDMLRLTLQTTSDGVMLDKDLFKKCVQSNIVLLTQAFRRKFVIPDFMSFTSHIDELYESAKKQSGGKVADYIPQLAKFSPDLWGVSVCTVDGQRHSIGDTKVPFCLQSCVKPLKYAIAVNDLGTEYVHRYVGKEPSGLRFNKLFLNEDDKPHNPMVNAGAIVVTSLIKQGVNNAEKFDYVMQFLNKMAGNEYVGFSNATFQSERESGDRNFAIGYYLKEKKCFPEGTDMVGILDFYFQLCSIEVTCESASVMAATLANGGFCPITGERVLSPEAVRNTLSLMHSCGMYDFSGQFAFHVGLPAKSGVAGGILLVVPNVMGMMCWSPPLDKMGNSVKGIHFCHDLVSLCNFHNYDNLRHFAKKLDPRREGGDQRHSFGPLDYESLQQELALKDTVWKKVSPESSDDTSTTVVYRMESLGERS
In words: Real-time binding assay, quenching of 488-GAC fluorescence. To be noted: 10 nM 488-GAC, 96-well plate format; read-out: KD of binding isotherm (fluorescence quenching). On the procedure: A plasmid encoding the mouse kidney-type glutaminase isoform 2 (GAC, GenBank Accession No. NP_001106854.1, which is hereby incorporated by reference in its entirety) (residues 72-603) was cloned into a pET23a vector containing an N-terminal histidine (His)-tag and thrombin cleavage site. The expressed protein was purified using Co^2+ affinity beads (Clontech), followed by His-tag cleavage with human thrombin (Haemetologic Technologies) overnight at 4° C., and subsequently purified by anion exchange (GE healthcare) and gel filtration chromatography. […] The stoichiometry of labeling was determined using the probe manufacturer's reported molar absorptivity values and instructions. Briefly, the concentration of GAC was determined by first correcting absorbance at 280 nm (Abs280) for each probe, using the reported correction values (0.11 for AlexaFluor 488 and 0.23 for QSY-9) and their absorbance values at their absorbance maxima (495 nm and 562 nm, respectively). The corrected Abs280 was used along with the experimentally determined molar absorptivity of GAC (ε280=38,850 M−1 cm−1). AlexaFluor 488 and QSY-9 probes were quantified using their respective absorbance maxima and the manufacturer's reported molar absorptivity values (ε495=71,000 M−1 cm−1 and ε562=85,000 M−1 cm−1). […]

Consider `CN(C)c1ccc(C2Nc3ccc4ccccc4c3C3=C2C(=O)CC(C)(C)C3)cc1Br` (stereo not shown) [Compound 968], for which the Kd (commonly the constant that tells how readily two partners part at equilibrium) turned out to be 3000 nM.
